Patent US20250115598A1 (Anaxis Pharma Pty Ltd, priority 2021, published 2025)

Tests used:
human RIPK1 = human RIPK1 (Homo sapiens (Human), UniProt Q13546); assay: KINOMEscan binding assay, human RIPK1; conditions: Table 21
How it was run: (§1)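 KINOMEscan competition binding using kinase-tagged T7 phage or HEK-293-produced DNA-tagged protein captured on ligand beads, with eluted protein quantified by qPCR. Compounds were run as an 11-point 3-fold series, top 30,000 nM, in 1% DMSO. Kd was fitted with the Hill equation, slope fixed at −1.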

human RIPK3 = human RIPK3 (Homo sapiens (Human), UniProt Q9Y572); assay: KINOMEscan binding assay, human RIPK3; conditions: Table 21
human RIPK3, sequence (Q9Y572 whole entry): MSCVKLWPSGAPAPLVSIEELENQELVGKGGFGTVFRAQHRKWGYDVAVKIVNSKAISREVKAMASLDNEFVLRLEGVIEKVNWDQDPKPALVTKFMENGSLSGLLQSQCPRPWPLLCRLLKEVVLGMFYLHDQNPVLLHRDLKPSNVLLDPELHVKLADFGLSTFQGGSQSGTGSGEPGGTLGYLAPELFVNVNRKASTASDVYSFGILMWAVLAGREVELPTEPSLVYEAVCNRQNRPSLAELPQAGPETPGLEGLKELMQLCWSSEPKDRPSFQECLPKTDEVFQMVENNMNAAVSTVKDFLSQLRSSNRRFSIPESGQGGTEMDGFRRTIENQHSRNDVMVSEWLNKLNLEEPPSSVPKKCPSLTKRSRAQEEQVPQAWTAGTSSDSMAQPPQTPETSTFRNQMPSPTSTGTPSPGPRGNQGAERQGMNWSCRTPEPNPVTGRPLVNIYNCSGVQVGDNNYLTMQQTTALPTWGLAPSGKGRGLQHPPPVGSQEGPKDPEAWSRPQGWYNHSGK
How it was run: as §1

human MLKL (full length) = human MLKL (full length) (Homo sapiens (Human), UniProt Q8NB16); assay: KINOMEscan binding assay, human MLKL (full length); conditions: KINOMEscan, Table 21; read-out: Human MLKL (full-length) (KD)
human MLKL (full length), sequence (Q8NB16 whole entry): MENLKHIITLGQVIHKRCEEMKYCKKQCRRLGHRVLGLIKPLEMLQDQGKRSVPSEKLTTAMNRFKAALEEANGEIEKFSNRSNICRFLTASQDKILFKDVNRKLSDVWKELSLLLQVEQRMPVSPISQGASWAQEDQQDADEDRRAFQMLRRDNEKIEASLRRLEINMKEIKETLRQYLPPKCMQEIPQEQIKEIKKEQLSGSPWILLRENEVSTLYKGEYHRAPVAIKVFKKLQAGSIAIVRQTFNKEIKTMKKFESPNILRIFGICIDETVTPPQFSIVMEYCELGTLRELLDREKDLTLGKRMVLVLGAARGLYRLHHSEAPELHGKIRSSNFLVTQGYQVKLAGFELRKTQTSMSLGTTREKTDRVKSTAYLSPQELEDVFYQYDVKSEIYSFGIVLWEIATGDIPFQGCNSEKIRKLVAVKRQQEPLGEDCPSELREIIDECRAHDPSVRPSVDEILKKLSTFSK
Experimental: Binding affinity of the test compounds for human MLKL (full length), mouse MLKL (full length), human RIPK1 and human RIPK3 was determined using the KINOMEscan™ technology developed by DiscoverX (USA; http://www.discoverx.com). The assay was conducted according to manufacturer instructions.
Kinase assays. For most assays, kinase-tagged T7 phage strains were grown in parallel in 24-well blocks in an E. coli host derived from the BL21 strain. E. coli were grown to log-phase and infected with T7 phage from a frozen stock (multiplicity of infection=0.4) and incubated with shaking at 32° C. until lysis (90-150 minutes). The lysates were centrifuged (6,000×g) and filtered (0.2 μm) to remove cell debris. The remaining kinases were produced in HEK-293 cells and subsequently tagged with DNA for qPCR detection. […] The liganded beads were blocked with excess biotin and washed with blocking buffer (SeaBlock (Pierce), 1% BSA, 0.05% Tween 20, 1 mM DTT) to remove unbound ligand and to reduce non-specific phage binding. […] All reactions were performed in polypropylene 384-well plates in a final volume of 20 μL. […] The kinase concentration in the eluates was measured by qPCR.
An 11-point 3-fold serial dilution of each test compound was prepared in 100% DMSO at 100× final test concentration and subsequently diluted to 1× in the assay (final DMSO concentration=1%). Most Kos were determined using a compound top concentration=30,000 nM.
KD for each test compound was calculated with a standard dose-response curve using the Hill equation (equation (1)): […]
The Hill Slope was set to −1.
Curves were fitted using a non-linear least square fit with the Levenberg-Marquardt algorithm.

human RIPK1, sequence (Q13546 whole entry): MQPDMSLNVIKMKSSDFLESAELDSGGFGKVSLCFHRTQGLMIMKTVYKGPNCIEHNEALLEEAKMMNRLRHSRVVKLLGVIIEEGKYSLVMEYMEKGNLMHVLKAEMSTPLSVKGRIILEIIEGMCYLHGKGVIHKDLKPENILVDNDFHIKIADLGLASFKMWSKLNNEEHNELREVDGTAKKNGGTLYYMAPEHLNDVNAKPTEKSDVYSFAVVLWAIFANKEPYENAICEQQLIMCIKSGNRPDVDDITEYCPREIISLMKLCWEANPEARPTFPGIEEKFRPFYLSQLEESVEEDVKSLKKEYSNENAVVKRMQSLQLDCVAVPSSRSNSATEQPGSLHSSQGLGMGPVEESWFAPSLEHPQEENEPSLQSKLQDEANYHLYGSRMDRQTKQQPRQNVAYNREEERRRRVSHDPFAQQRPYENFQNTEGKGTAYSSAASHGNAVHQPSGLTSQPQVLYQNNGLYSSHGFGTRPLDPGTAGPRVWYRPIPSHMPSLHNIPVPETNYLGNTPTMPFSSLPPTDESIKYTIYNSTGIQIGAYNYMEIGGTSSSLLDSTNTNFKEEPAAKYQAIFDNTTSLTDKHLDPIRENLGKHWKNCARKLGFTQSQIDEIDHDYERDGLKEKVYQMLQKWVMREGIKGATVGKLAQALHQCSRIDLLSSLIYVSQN

Row | Kd (human RIPK1) [µM] | Kd (human RIPK3) [µM] | Kd (human MLKL (full length)) [µM] | SMILES
1 | > 10 | > 10 | < 0.001 | COCC(Oc1cc(-c2nn(C)c3c(-c4cnn(C5CCOCC5)c4)cnc(N)c23)ccc1NS(=O)(=O)C(F)F)c1ccc(F)cc1 (racemic) [Compound 102, N-(4-(4-amino-1-methyl-7-(1-(tetrahydro-2H-pyran-4-yl)-1H-pyrazol-4-yl)-1H-pyrazolo[4,3-c]pyridin-3-yl)-2-(1-(4-fluorophenyl)-2-methoxyethoxy)phenyl)-1,1-difuoromethane-sulfonamide]
2 | > 10 | > 10 | < 0.001 | CCS(=O)(=O)Nc1ccc(-c2coc3c(-c4cnn(C5CCOCC5)c4)cnc(N)c23)cc1OCc1ccc(F)cc1 [Compound 3, N-(4-(4-amino-7-(1-(tetrahydro-2H-pyran-4-yl)-1H-pyrazol-4-yl)furo[3,2-c]pyridin-3-yl)-2-((4-fluorobenzyl)oxy)phenyl)ethanesulfonamide]
3 | > 10 | > 10 | < 0.001 | Nc1ncc(-c2cnn(CCO)c2)c2occ(-c3ccc(NS(=O)(=O)C(F)F)c(OCc4ccc(F)cc4)c3)c12 [Compound 6, N-(4-(4-amino-7-(1-(2-hydroxyethyl)-1H-pyrazol-4-yl)furo[3,2-c]pyridin-3-yl)-2-((4-fluorobenzyl)oxy)phenyl)-1,1-difluoro-methanesulfonamide]
4 | > 10 | > 10 | – | C[C@H](Oc1cc(-c2nn(C)c3c(-c4cnn(C5CCOCC5)c4)cnc(N)c23)ccc1NS(=O)(=O)N(C)C)c1ccc(F)cc1 [Compound 124]
5 | > 10 | > 10 | – | C[C@H](Oc1cc(-c2nn(C)c3c(-c4cnn(C5CCOCC5)c4)cnc(N)c23)ccc1NS(=O)(=O)Cc1ccccc1)c1ccc(F)cc1 [Compound 125, (S)-N-(4-(4-amino-1-methyl-7-(1-(tetra-hydro-2H-pyran-4-yl)-1H-pyrazol-4-yl)-1H-pyrazolo[4,3-c]pyridin-3-yl)-2-(1-(4-fluoro-phenyl)eth-oxy)phenyl)-1-phenylmethane-sulfonamide]
6 | > 10 | > 10 | – | C[C@H](Oc1cc(-c2nn(C)c3c(-c4ccn(C)c4)cnc(N)c23)ccc1NS(=O)(=O)C(F)F)c1ccc(F)cc1 [Compound 126, (S)-N-(4-(4-amino-1-methyl-7-(1-methyl-1H-pyrrol-3-yl)-1H-pyrazolo[4,3-c]pyridin-3-yl)-2-(1-(4-fluorophenyl)ethoxy)phenyl)-1,1-difluoromethanesulfonamide]
7 | > 10 | > 10 | – | C[C@H](Oc1cc(-c2nn(C)c3c(C#CC4CCN(CC(F)(F)F)CC4)cnc(N)c23)ccc1NS(=O)(=O)C(F)F)c1ccc(F)cc1 [Compound 128, (S)-N-(4-(4-amino-1-methyl-7-((1-(2,2,2-trifluoroethyl)piperidin-4-yl)ethynyl)-1H-pyrazolo[4,3-c]pyridin-3-yl)-2-(1-(4-fluorophenyl)ethoxy)phenyl)-1,1-difluoromethane-sulfonamide]
8 | > 10 | > 10 | – | C[C@H](Oc1cc(-c2nn(C)c3c(-c4cnn(C(F)(F)F)c4)cnc(N)c23)ccc1NS(=O)(=O)C(F)F)c1ccc(F)cc1 [Compound 134, (S)-N-(4-(4-amino-1-methyl-7-(1-(trifluoromethyl)-1H-pyrazol-4-yl)-1H-pyrazolo[4,3-c]pyridin-3-yl)-2-(1-(4-fluorophenyl)ethoxy)phenyl)-1,1-difluoromethanesulfonamide]
9 | > 10 | > 10 | – | COCC(Oc1cc(-c2nn(C)c3c(-c4cnn(C5CCN(C)CC5)c4)cnc(N)c23)ccc1NS(=O)(=O)C(F)F)c1ccc(F)cc1 (centres unmarked) [Compound 139, N-(4-(4-amino-1-methyl-7-(1-(1-methyl-piperidin-4-yl)-1H-pyrazol-4-yl)-1H-pyrazolo[4,3-c]pyridin-3-yl)-2-(1-(4-fluorophenyl)-2-methoxyethoxy)phe-nyl)-1,1-difluoro-methanesulfonamide]
10 | > 10 | > 10 | – | Cn1nc(-c2ccc(NS(=O)(=O)C(F)F)c(OC3(c4ccc(F)cc4)CC3)c2)c2c(N)ncc(-c3cnn(C4CCOCC4)c3)c21 [Compound 140, N-(4-(4-amino-1-methyl-7-(1-(tetrahydro-2H-pyran-4-yl)-1H-pyrazol-4-yl)-1H-pyrazolo[4,3-c]pyridin-3-yl)-2-(1-(4-fluorophenyl)cyclopropoxy)phenyl)-1,1-difluoromethane-sulfonamide]
11 | > 10 | > 10 | – | C[C@H](Oc1cc(-c2nn(C)c3c(N4CCOCC4)cnc(N)c23)ccc1NS(=O)(=O)C(F)F)c1ccc(F)cc1 [Compound 141, N-{4-[4-amino-1-methyl-7-(morpholin-4-yl)-1H-pyrazolo[4,3-c]pyridin-3-yl]-2-[(1S)-1-(4-fluorophenyl)ethoxy]phenyl}-1,1-difluoromethanesulfonamide]
12 | > 10 | > 10 | – | C[C@H](Oc1cc(-c2nn(C)c3c(-c4cnn(C5CCN(C)C6(CC6)C5)c4)cnc(N)c23)ccc1NS(=O)(=O)C(F)F)c1ccc(F)cc1 (stereo partly drawn) [Compound 145, N-(4-(4-amino-1-methyl-7-(1-(4-methyl-4-azaspiro[2.5]octan-7-yl)-1H-pyrazol-4-yl)-1H-pyrazolo[4,3-c]pyridin-3-yl)-2-((S)-1-(4-fluorophenyl)ethoxy)phenyl)-1,1-difluoromethanesulfonamide]
13 | > 10 | > 10 | – | C[C@H](Oc1cc(-c2nn(C)c3c(-c4cnn(C5CCC(F)(F)CC5)c4)cnc(N)c23)ccc1NS(=O)(=O)C(F)F)c1ccc(F)cc1 [Compound 146, (S)-N-(4-(4-amino-7-(1-(4,4-difluorocyclohexyl)-1H-pyrazol-4-yl)-1-methyl-1H-pyrazolo[4,3-c]pyridin-3-yl)-2-(1-(4-fluorophenyl)ethoxy)phenyl)-1,1-difluoromethanesulfonamide]
14 | > 10 | > 10 | – | Cc1nn(C2CCN(C)C(C)(C)C2)cc1-c1cnc(N)c2c(-c3ccc(NS(=O)(=O)C(F)F)c(O[C@@H](C)c4ccc(F)cc4)c3)nn(C)c12 (stereo partly drawn) [Compound 156, N-(4-(4-amino-1-methyl-7-(3-methyl-1-(1,2,2-trimethylpiperidin-4-yl)-1H-pyrazol-4-yl)-1H-pyrazolo[4,3-c]pyridin-3-yl)-2-((S)-1-(4-fluorophenyl)ethoxy)phenyl)-1,1-difluoromethanesulfonamide]
15 | > 10 | > 10 | – | Cc1c(-c2cnc(N)c3c(-c4ccc(NS(=O)(=O)C(F)F)c(O[C@@H](C)c5ccc(F)cc5)c4)nn(C)c23)cnn1C1CCN(C)C(C)(C)C1 (stereo partly drawn) [Compound 157, N-(4-(4-amino-1-methyl-7-(5-methyl-1-(1,2,2-trimethylpiperidin-4-yl)-1H-pyrazol-4-yl)-1H-pyrazolo[4,3-c]pyridin-3-yl)-2-((S)-1-(4-fluorophenyl)ethoxy)phenyl)-1,1-difluoromethanesulfonamide]
16 | > 10 | > 10 | – | C[C@H](Oc1cc(-c2nn(C)c3c(-c4ccc5c(c4)CC(=O)N5C)cnc(N)c23)ccc1NS(=O)(=O)C(F)F)c1ccc(F)cc1 [Compound 165, (S)-N-(4-(4-amino-1-methyl-7-(1-methyl-2-oxoindolin-5-yl)-1H-pyrazolo[4,3-c]pyridin-3-yl)-2-(1-(4-fluorophenyl)ethoxy)phenyl)-1,1-difluoromethanesulfonamide]
17 | > 10 | > 10 | – | C[C@H](Oc1cc(-c2nn(C)c3c(-c4ccc5c(cnn5C)c4)cnc(N)c23)ccc1NS(=O)(=O)C(F)F)c1ccc(F)cc1 [Compound 166, (S)-N-(4-(4-amino-1-methyl-7-(1-methyl-1H-indazol-5-yl)-1H-pyrazolo[4,3-c]pyridin-3-yl)-2-(1-(4-fluorophenyl)ethoxy)phenyl)-1,1-difluoromethanesulfonamide]
18 | > 10 | > 10 | – | C[C@H](Oc1cc(-c2nn(C)c3c(-c4cnn(C5CCN(CC(F)(F)F)C(C)(C)C5)c4)cnc(N)c23)ccc1NS(=O)(=O)C(F)F)c1ccc(F)cc1 (stereo partly drawn) [Compound 167, N-(4-(4-amino-7-(1-(2,2-dimethyl-1-(2,2,2-trifluoroethyl)piperidin-4-yl)-1H-pyrazol-4-yl)-1-methyl-1H-pyrazolo[4,3-c]pyridin-3-yl)-2-((S)-1-(4-fluorophenyl)ethoxy)phenyl)-1,1-difluoromethanesulfonamide]
19 | 0.1 to 10 | > 10 | – | CC1CN(C)CC(C)C1n1cc(-c2cnc(N)c3c(-c4ccc(NS(=O)(=O)C(F)F)c(O[C@@H](C)c5ccc(F)cc5)c4)nn(C)c23)cn1 (stereo partly drawn) [Compound 172, N-(4-(4-amino-1-methyl-7-[1-(1,3,5-trimethylpiperidin-4-yl)-1H-pyrazol-4-yl]-1H-pyrazolo[4,3-c]pyridin-3-yl}-2-[(1S)-1-(4-fluorophenyl)ethoxy]phenyl)-1,1-difluoromethanesulfonamide]
